# System: HCV replicon RTVs containing the NS5B region of Con1 or H77 reference and SDM mutants
# Assay: PhenoSense HCV NS5B Assay: luciferase replicon resistance test vector inhibitor susceptibility in Huh7 cells
# Type: cell-based, hepatitis C virus
# Conditions: MT:WT RTV mixtures 0-100% mutant; control inhibitor
# Protocol: RTV RNA was electroporated into a Huh7 cell line, and electroporated cells were incubated in the absence and presence of serially diluted inhibitors. RNA input was monitored by measuring the amount of luciferase activity produced in the electroporated cells at 4 hours post-electroporation. Luciferase activity is expressed as relative light units (RLU). Replication capacity (RC) was determined by evaluating luciferase activity at 72-96 hours postelectroporation in the absence of inhibitor, relative to RNA input and a control reference replicon RTV (Con1). A replication defective Con1 replicon (Con1 polymerase defective) was utilized to determine assay background (data not shown) Inhibitor susceptibility was determined by evaluating the ability of RTVs to replicate in the absence and presence of inhibitor at 72-96 hours post-electroporation. […]
# Assay accuracy was assessed by evaluating the HCV polymerase inhibitor susceptibility of RTVs containing the NS5B region of well-characterized subtype 1a (H77) and 1b (Con1) reference sequences and subtype 1a and 1b reference sequences engineered by site-directed mutagenesis (SDM) to contain mutations that confer reduced susceptibility to inhibitors of HCV RdRp (FIG. 3) Inhibitor susceptibility data (IC50-FC and IC95-FC) were analyzed for concordance with phenotypic data reported in the scientific literature. […]
substance,measurement,value
interferon [INF],susceptibility as a function of the proportion of MT RTV within a mixture,not affected
